Reference: ChEMBL document CHEMBL3832761, “MMV Pathogen Box Bioactivity Data” (2017)
Values belong to the molecule of their own block, whether it stands above or below them. Calls of active or inactive are those of the source. No cut-off for these calls is given here.

Assays:
Schistosoma mansoni [1] = experiment: AntiSchistosoma mansoni activity Larva IC50 (uM); assay type: functional, organism-based
Schistosoma mansoni [2] = experiment: AntiSchistosoma mansoni activity Juveniles IC50 (uM); assay type: functional, organism-based
Schistosoma mansoni [3] = experiment: AntiSchistosoma mansoni activity Adults IC50 (uM); assay type: functional, organism-based
Schistosoma mansoni [4] = experiment: AntiSchistosoma mansoni activity Newly Transformed Schistosomula: inhibition at 10 uM at 72h (%); assay type: functional
Schistosoma mansoni [5] = experiment: AntiSchistosoma mansoni activity Newly Transformed Schistosomula: IC50 at 72h (uM); assay type: functional, organism-based
Schistosoma mansoni [6] = experiment: AntiSchistosoma mansoni activity Adults: Effect at 10 uM after 48h; assay type: functional, organism-based
HepG2 = experiment: Cytotoxicity data HepG2 CC20 (uM); assay type: functional
MRC5 = experiment: MRC5 CC50 (uM) Cytotoxicity; assay type: functional; settings: Homo sapiens
Toxoplasma gondii [7] = experiment: AntiToxoplasma gondii activity data Inhibition of plaque forming efficiency (%) Experiment A; assay type: functional; design: concentration or dose not given beside the values
Toxoplasma gondii [8] = experiment: AntiToxoplasma gondii activity data 2-day killing assay: inhibition at 10 uM (%) Experiment C; assay type: functional; settings: 48 h
Toxoplasma gondii [9] = experiment: AntiToxoplasma gondii activity data 2-day killing assay: inhibition at 10 uM (%) Experiment D; assay type: functional
Toxoplasma gondii [10] = experiment: AntiToxoplasma gondii activity data 2-day killing assay: inhibition at 10 uM (%) Experiment E; assay type: functional
Toxoplasma gondii [11] = experiment: AntiToxoplasma gondii activity data 2-day killing assay: IC50 (uM), Experiment F; assay type: functional, organism-based; settings: Toxoplasma gondii, 48 h; read-out: IC50
Toxoplasma gondii [12] = experiment: AntiToxoplasma gondii activity data 2-day killing assay: IC50 (uM), Experiment G; assay type: functional, organism-based; settings: Toxoplasma gondii, 48 h; read-out: IC50
[13] = HL60 CC50 (uM) Cytotoxicity; assay type: functional; settings: HL-60
Brugia pahangi = experiment: AntiBrugia pahangi activity Average inhibition motility at 10 uM (%); assay type: functional
Onchocerca gutturosa [14] = experiment: AntiOnchocerca activity O. gutturosa adult males: Motility reduction at 12.5 uM (%); assay type: functional; design: scale not given: the % may be the effect or the level left
Onchocerca gutturosa [15] = experiment: AntiOnchocerca activity O. gutturosa adult males: MTT reduction at 12.5 uM (%); assay type: functional; design: scale not given: the % may be the effect or the level left
Onchocerca lienalis = experiment: AntiOnchocerca activity O. lienalis microfilariae Motility reduction (%); assay type: functional; design: concentration or dose not given beside the values
Onchocerca ochengi [16] = experiment: AntiOnchocerca activity O. ochengi adult females: final mean inhibition motility at 10 uM on Day 7 (%); assay type: functional
Onchocerca ochengi [17] = experiment: AntiOnchocerca activity O. ochengi adult males: final mean inhibition motility at 10 uM on Day 5 (%); assay type: functional
Onchocerca volvulus = experiment: AntiOnchocerca activity O. volvulus L3 Molting assay: inhibition at 10 uM (%); assay type: functional
Trypanosoma cruzi = experiment: AntiTrypanosoma cruzi activity IC50 (uM); assay type: functional, organism-based
Trypanosoma brucei [18] = experiment: AntiTrypanosoma brucei activity T. b. brucei IC50 (uM); assay type: functional, organism-based
Trypanosoma brucei [19] = experiment: AntiTrypanosoma brucei activity T. b. rhodesiense IC50 (uM); assay type: functional, organism-based
Leishmania major = experiment: AntiLeishmania activity L. major IC50 (uM); assay type: functional, organism-based
Leishmania infantum = experiment: AntiLeishmania activity L. infantum (macrophages) IC50 (uM); assay type: functional, organism-based
[20] = PMM CC50 (uM) Cytotoxicity; assay type: functional; settings: Macrophage
Leishmania donovani [21] = experiment: AntiLeishmania activity L. donovani (axenic) IC50 (uM); assay type: functional, organism-based
Leishmania donovani [22] = experiment: AntiLeishmania activity L. donovani (macrophages) IC50 (uM); assay type: functional, organism-based
Leishmania = experiment: AntiLeishmania activity Toxicity on infected PMM (uM); assay type: functional
L6 = experiment: L6 CC50 (uM) Cytotoxicity; assay type: functional; settings: Rattus norvegicus
Cryptosporidium parvum [23] = experiment: AntiCryptosporidium parvum activity Compounds added 3h after t0, IC 50 (uM); assay type: functional, organism-based
Cryptosporidium parvum [24] = experiment: AntiCryptosporidium parvum activity Compounds added at t0, IC 50 (uM); assay type: functional, organism-based

Compound: COc1ccc(-c2cnc3cnc(-c4cccc(OC(C)C)c4)cn23)cc1
IC50 (Schistosoma mansoni [1]): 6.7 µM | IC50 (Schistosoma mansoni [2]): 5.7 µM | IC50 (Schistosoma mansoni [3]): 4.9 µM | Inhibition (Schistosoma mansoni [4]): 93% | IC50 (Schistosoma mansoni [5]): 1.18 µM | Activity (Schistosoma mansoni [6]): Active | CC20 (HepG2): 24.3 µM | CC50 (MRC5): 40.1 µM

Compound: Nc1ncnc2[nH]nc(Cc3cccc4ccccc34)c12
Inhibition (Toxoplasma gondii [7]): 100% | inhibition at 10 µM (Toxoplasma gondii [8]): 54.7% | Inhibition (Toxoplasma gondii [9]): 89.2% | Inhibition (Toxoplasma gondii [10]): 63.3% | IC50 (Toxoplasma gondii [11]): 2.31 µM | IC50 (Toxoplasma gondii [12]): 3.05 µM | CC50 [13]: > 25 µM

Compound: COc1ccc(N(CCc2cccc(C)n2)C(C)=O)cc1
Inhibition (Brugia pahangi): 6% | Activity (Onchocerca gutturosa [14]): 35.7% | Activity (Onchocerca gutturosa [15]): 29.6% | Activity (Onchocerca lienalis): 13.3% | Inhibition (Onchocerca ochengi [16]): 0% | Inhibition (Onchocerca ochengi [17]): 6% | Inhibition (Onchocerca volvulus): 88% | CC20 (HepG2): >80 µM | CC50 [13]: > 50 µM

Compound: O=C(CN1CCOCC1)Nc1ccc2ncnc(Nc3ccc(OCc4cccc(F)c4)c(Cl)c3)c2c1
IC50 (Trypanosoma cruzi): 0.95 µM | IC50 (Trypanosoma brucei [18]): 5.31 µM | IC50 (Trypanosoma brucei [19]): 3.07 µM | IC50 (Leishmania major): 12.4 µM | IC50 (Leishmania infantum): > 32 µM | CC20 (HepG2): 10.9 µM | CC50 (MRC5): 6.4 µM | CC50 [20]: > 32 µM

Compound: CC(C)(C)c1ccc(N[C@@H]2CCCC[C@H]2NC(=O)c2ccco2)cc1
Inhibition (Brugia pahangi): 3% | Activity (Onchocerca gutturosa [14]): 50% | Activity (Onchocerca gutturosa [15]): 37.7% | Activity (Onchocerca lienalis): 13.3% | Inhibition (Onchocerca ochengi [16]): 0% | Inhibition (Onchocerca ochengi [17]): 1% | Inhibition (Onchocerca volvulus): 80% | CC20 (HepG2): 35.9 µM | CC50 [13]: > 50 µM

Compound: Cc1nn(C(=O)Nc2cccc(C(F)(F)F)c2)c(C)c1Sc1ncccn1
IC50 (Schistosoma mansoni [2]): 4.05 µM | IC50 (Schistosoma mansoni [3]): 2 µM | Inhibition (Schistosoma mansoni [4]): 33.3% | Activity (Schistosoma mansoni [6]): Active | CC20 (HepG2): 30.7 µM

Compound: COc1ccc(-c2nnc3ccc(-c4cccc(C(C)C)c4)cn23)cc1OC
IC50 (Schistosoma mansoni [1]): 6.6 µM | IC50 (Schistosoma mansoni [2]): 4 µM | IC50 (Schistosoma mansoni [3]): 1.6 µM | Inhibition (Schistosoma mansoni [4]): 79% | IC50 (Schistosoma mansoni [5]): 5.69 µM | Activity (Schistosoma mansoni [6]): Active | CC20 (HepG2): 7.5 µM | CC50 (MRC5): 18.6 µM

Compound: CC(C)n1nc(-c2cc3c(Cl)cccc3[nH]2)c2c(N)ncnc21
Inhibition (Toxoplasma gondii [7]): 100% | inhibition at 10 µM (Toxoplasma gondii [8]): 99.6% | Inhibition (Toxoplasma gondii [9]): 100% | Inhibition (Toxoplasma gondii [10]): 99.5% | IC50 (Toxoplasma gondii [11]): 0.16 µM | CC50 [13]: > 25 µM

Compound: COc1ccc(OC)c(NCc2ccc3nc(N)nc(N)c3c2Cl)c1
IC50 (Cryptosporidium parvum [23]): 3.98 µM | IC50 (Cryptosporidium parvum [24]): 0.1 µM | CC20 (HepG2): 3.44 µM | CC50 [13]: > 25 µM

Compound: Nc1ccc2ncnc(Nc3ccc(OCc4cccc(F)c4)c(Cl)c3)c2c1
IC50 (Trypanosoma cruzi): 4.03 µM | IC50 (Trypanosoma brucei [18]): > 32 µM | IC50 (Trypanosoma brucei [19]): 13.1 µM | IC50 (Leishmania major): 10.4 µM | IC50 (Leishmania infantum): > 32 µM | CC20 (HepG2): 9.72 µM | CC50 (MRC5): > 32 µM | CC50 [20]: > 32 µM

Compound: CCOc1ccc2cc(-c3nn(CC4CCN(C)CC4)c4ncnc(N)c34)ccc2c1
IC50 (Cryptosporidium parvum [24]): 0.05 µM

Compound: CC(C)(C)n1nc(Cc2ccc(F)c(Cl)c2)c2c(N)ncnc21
Inhibition (Toxoplasma gondii [7]): 100% | inhibition at 10 µM (Toxoplasma gondii [8]): 98.3% | Inhibition (Toxoplasma gondii [9]): 100% | Inhibition (Toxoplasma gondii [10]): 95.5% | IC50 (Toxoplasma gondii [11]): 1.7 µM | CC50 [13]: > 25 µM

More lines, main results first:

IC50 (Schistosoma mansoni [2]): 3.8 µM | IC50 (Schistosoma mansoni [3]): 7.2 µM | IC50 (Schistosoma mansoni [5]): 0.29 µM
Compound: Cc1[nH]c2ccccc2c1C(c1cccs1)N1CCN(C)CC1 (stereo unspecified)
Inhibition (Schistosoma mansoni [4]): 100% | CC20 (HepG2): 8.46 µM | CC50 (MRC5): > 20 µM

IC50 (Trypanosoma cruzi): 0.97 µM | IC50 (Trypanosoma brucei [18]): 6.61 µM | IC50 (Trypanosoma brucei [19]): 5.62 µM | IC50 (Leishmania major): 8.96 µM | IC50 (Leishmania infantum): 4.03 µM | IC50 (Leishmania donovani [21]): 0.03 µM | IC50 (Leishmania donovani [22]): 4.2 µM
Compound: Cc1nc(-c2ccccn2)nc(N2CCC(Cc3ccccc3)C2)c1Cl (stereo unspecified)
Toxicity on infected macrophages (Leishmania): 16.7 µM | CC20 (HepG2): 10.2 µM | CC50 (L6): 15.2 µM | CC50 (MRC5): 15.5 µM | CC50 [20]: 16 µM

IC50 (Cryptosporidium parvum [23]): > 10 µM | IC50 (Cryptosporidium parvum [24]): 0.1 µM
Compound: CC(C)(C)n1nc(Cc2cccc3ccccc23)c2c(N)ncnc21
CC20 (HepG2): 19 µM | CC50 [13]: 24.1 µM

IC50 (Schistosoma mansoni [2]): 5.8 µM | IC50 (Schistosoma mansoni [3]): 5.3 µM
Compound: Cc1ccccc1C(=O)N1N=C(Nc2ccccc2)SC1(C)C
IC50 (Schistosoma mansoni [1]): 6.7 µM | Inhibition (Schistosoma mansoni [4]): 0% | CC20 (HepG2): 8 µM | CC50 (MRC5): > 50 µM

IC50 (Schistosoma mansoni [5]): 0.43 µM
Compound: Cn1ncc2c(N3CCOCC3)nc(NCCc3c[nH]c4ccccc34)nc21 [TDR79432]
Inhibition (Schistosoma mansoni [4]): 88% | Activity (Schistosoma mansoni [6]): Active | CC20 (HepG2): 4.63 µM

IC50 (Cryptosporidium parvum [23]): > 10 µM | IC50 (Cryptosporidium parvum [24]): 0.1 µM
Compound: CS(=O)(=O)N1CCC(Cn2nc(Cc3cccc4ccccc34)c3c(N)ncnc32)CC1
CC20 (HepG2): 53 µM | CC50 [13]: 47.3 µM

IC50 (Schistosoma mansoni [2]): 3.22 µM | IC50 (Schistosoma mansoni [3]): 4.8 µM
Compound: CS(=O)(=O)c1ccc(C(=O)N(CC2CCCO2)c2nc3ccccc3s2)cc1[N+](=O)[O-] (stereo unspecified)
IC50 (Schistosoma mansoni [1]): 0.29 µM | Inhibition (Schistosoma mansoni [4]): 100% | CC20 (HepG2): 6.94 µM | CC50 (MRC5): 6.2 µM
